Source: patent publication US8703804B2, “Ryanodine receptor inhibitors and methods relating thereto” (UTI Limited Partnership, priority 2006, dated 2014)
“Also recorded” adds a separate entry of the source. Like-named read-outs stand apart in the source and are kept apart here.

Tests used:
[1] = test system: SOICR in rat ventricular myocytes; experiment: SOICR in rat ventricular myocytes (single cell Ca2+ imaging, fluo-4); format: cell-based; conditions: for IC50: Rattus norvegicus, Ventricular myocyte
Protocol: Rat ventricular myocytes were loaded with a fluorescent Ca^2+ indicator, fluo 4-AM, and incubated at a high concentration of external Ca^2+ (10 mM) to induced SR Ca^2+ overload and SOICR, which manifests as Ca^2+ oscillations.
In the experiments shown in FIG. 3, rat ventricular myocytes were loaded with a fluorescent Ca^2+ indicator, fluo-4, and incubated at a high concentration of extracellular Ca^2+ (10 mM) to induce SR Ca^2+ overload and SOICR, which manifests as Ca^2+ waves/oscillations. These Ca^2+ oscillations were monitored by a single cell Ca^2+ imaging technique.
(§1) Further verification of whether these identified compounds also work in cardiac cells, the effect of these compounds on SOICR in rat ventricular myocytes may also be determined. Rat ventricular myocytes may be isolated according to the standard procedure using enzymatic digestion. Freshly isolated cells are loaded with a fluorescent Ca^2+ dye, fluo 4-AM, and bathed at high concentrations of extracellular Ca^2+ (5-10 mM) to induce SR Ca^2+ overload and SOICR. The intracellular Ca^2+ transients as a result of SOICR will be monitored by measuring the fluorescent intensity using a fluorescent microscope. Various concentrations of the selected compounds (10 nM to 100 μM) will be applied and the resulting changes in intracellular Ca^2+ transients will be determined and analyzed.

β-adrenergic receptor = experiment: β-blocking: isoproterenol-induced phosphorylation of RyR2 at serine-2030 in rat cardiac myocytes (Western blot); format: cell-based; conditions: 200 nM isoproterenol; for concentration that completely blocks the β-adrenergic receptor: S2030 phosphorylation
Protocol: The β-adrenergic receptors were then stimulated by the addition of 200 nM isoproterenol (Iso) in the continued presence of drugs for 30 min at 37° C. Whole cell lysates were prepared and used for Western blotting (WB) analyses.
It is known that stimulation of the β-adrenergic receptor (AR) by isoproterenol leads to the activation of the cAMP/protein kinase A (PKA) signaling pathway, which, in turn, results in the phosphorylation by PKA of various protein targets, including the RyR2 channel. RyR2 is specifically phosphorylated at the residue serine-2030 (S2030) upon β-AR stimulation by isoproterenol (Xiao et al., 2005). […] To do this, freshly isolated rat cardiac myocytes are pre-treated with various concentrations of the selected compounds for 5 min, followed by stimulation of the β-AR with 100-200 nM isoproterenol in the continued presence of the selected compounds for 30 min. Whole cell lysates are then prepared and used for determining the level of phosphorylation of RyR2 at S2030 by Western blotting using a site- and phospho-specific antibody against the phosphorylated S2030 site.

RyR2-R4496C KI mice = experiment: Stress-induced ventricular tachycardia in RyR2-R4496C knock-in mice (CPVT model); format: in vivo, mouse; conditions: 16 mg/kg/day i.p. for 5 days, preliminary
Protocol: The electrocardiograms (ECG) of the R4496C KI mice were continuously monitored by using telemetric ECG recordings before and after the injection of epinephrine and caffeine. The incidence of ventricular tachycardia (VT) was assessed by determining the duration of VT occurring during a 2-min period (% of time).
In order to assess the efficacy of compounds of the present invention in suppressing cardiac arrhythmia at the animal level, genetically engineered knock-in mice were generated harboring RyR2 mutations that are associated with cardiac arrhythmia and sudden death. A heterozygous knock-in mouse line harboring the disease-causing RyR2 mutation, R4496C, has been prepared. Similar to patients who carry the mutation, the R4496C mutant mice are likely prone to stress-induced cardiac arrhythmia and sudden death. If this is the case, this R4496C mouse model may be used to test if compounds of the present invention are able to reduce the incidence of stress-induced cardiac arrhythmia and sudden death. Briefly, mutant mice will be pretreated with or without a positive compound identified above. Epinephrine and caffeine will be injected into the mutant mice to induce cardiac arrhythmia. Telemetric ECG recordings will be used to monitor the cardiac activity at rest and during epinephrine and caffeine perfusion. […]

β-adrenergic receptors = conditions: Yao et al., 2003; read-out: IC50 of β-blocking activity; cited from earlier work
[2] = patients with heart failure; Miller, 2003; cited from earlier work
RyR2 = experiment: Initial investigations studying RyR2: suppression of SOICR by analogues; format: cell-based
RyR2-N4104K mutant = molecular target: T1, RyR2-N4104K mutant (Mus musculus, UniProt E9Q401, N4103K); experiment: SOICR in HEK293 cells expressing the N4104K RyR2 mutant; format: cell-based
T1 construct: expressed in transfected cells; host or cells: HEK293
Protocol: (§2) Intracellular Ca^2+ transients were monitored using single cell Ca^2+ imaging.
(§3) HEK293 cells may be loaded with a fluorescent Ca^2+ dye, fura-2-AM. SOICR, which manifests in the form of Ca^2+ oscillations, is continuously monitored by measuring the fluorescent changes using the single cell Ca^2+ imaging technique. Cells will be perfused with increasing concentrations (10 nM to 100 μM) of the compound. The frequency and amplitude of Ca^2+ oscillations under each condition will be determined and analyzed. Compounds that inhibit SOICR are expected to reduce the frequency of Ca^2+ oscillations, or abolish Ca^2+ oscillations.
as §1, with “Freshly isolated cells are loaded with a fluorescent Ca^2+ dye, fluo 4-AM, and bathed at high concentrations of extracellular Ca^2+ (5-10 mM) to induce SR Ca^2+ overload and SOICR.” left out

RyR2 channel [3] = molecular target: RyR2 channel (Homo sapiens, UniProt Q92736); conditions: Honen et al., 2003; cited from earlier work
RyR2-R4496C mutant = molecular target: T2, RyR2-R4496C mutant (Mus musculus, UniProt E9Q401, R4495C); experiment: SOICR in HEK293 cells expressing RyR2-R4496C mutant (fura-2 single cell Ca2+ imaging); format: cell-based; conditions: up to 500 μM
T2 construct: expressed in transfected cells; host or cells: HEK293
Text: as §2
This bioassay takes advantage of the finding that HEK293 cells expressing RyR2 mutants associated with cardiac arrhythmia and sudden death, readily display SOICR at elevated extracellular Ca^2+. […] This assay may be employed to determine the dose-dependent effect of each proposed compound on SOICR.
as §3

mutant RyR2 channels = molecular target: T3, mutant RyR2 channels (Mus musculus, UniProt E9Q401, R4495C); experiment: [3H]ryanodine binding, basal channel activity of RyR2; format: biochemical
T3 construct: expressed in transfected cells; host or cells: HEK293 (cell lysate, detergent-solubilised)
Text: as §2
[^3H]Ryanodine binding has been widely used as a functional assay for assessing the activity of the RyR2 channel. […] These [^3H]ryanodine binding studies reveal whether suppression of SOICR by a compound is mediated by inhibition of the RyR2 channel activity.

RyR2 channel [4] = molecular target: T4, RyR2 channel (Mus musculus, UniProt E9Q401, R4495C); experiment: Ca2+ dependence of [3H]ryanodine binding (sensitivity of RyR2 to Ca2+ activation, CICR); format: biochemical; conditions: 300 μM (FIG. 4D)
T4 construct: expressed in transfected cells; host or cells: HEK293 (cell lysate, detergent-solubilised)
Text: as §2
Alternatively, the effect of compounds on CICR may be determined using [^3H]ryanodine binding. As CICR is dependent, to a large extent, on the sensitivity of the RyR2 channel to activation by Ca^2+, the effect of a compound on CICR may be determined by assessing the impact of the compound on the sensitivity of the RyR2 channel to Ca^2+ activation. To this end, [^3H]ryanodine binding to the RyR2 channel in a wide range of Ca^2+ concentrations may be measured. The sensitivity (EC50) of [^3H]ryanodine binding to RyR2 in the absence and presence of a particular compound may be determined.

T2 sequence (E9Q401 whole entry R4495C): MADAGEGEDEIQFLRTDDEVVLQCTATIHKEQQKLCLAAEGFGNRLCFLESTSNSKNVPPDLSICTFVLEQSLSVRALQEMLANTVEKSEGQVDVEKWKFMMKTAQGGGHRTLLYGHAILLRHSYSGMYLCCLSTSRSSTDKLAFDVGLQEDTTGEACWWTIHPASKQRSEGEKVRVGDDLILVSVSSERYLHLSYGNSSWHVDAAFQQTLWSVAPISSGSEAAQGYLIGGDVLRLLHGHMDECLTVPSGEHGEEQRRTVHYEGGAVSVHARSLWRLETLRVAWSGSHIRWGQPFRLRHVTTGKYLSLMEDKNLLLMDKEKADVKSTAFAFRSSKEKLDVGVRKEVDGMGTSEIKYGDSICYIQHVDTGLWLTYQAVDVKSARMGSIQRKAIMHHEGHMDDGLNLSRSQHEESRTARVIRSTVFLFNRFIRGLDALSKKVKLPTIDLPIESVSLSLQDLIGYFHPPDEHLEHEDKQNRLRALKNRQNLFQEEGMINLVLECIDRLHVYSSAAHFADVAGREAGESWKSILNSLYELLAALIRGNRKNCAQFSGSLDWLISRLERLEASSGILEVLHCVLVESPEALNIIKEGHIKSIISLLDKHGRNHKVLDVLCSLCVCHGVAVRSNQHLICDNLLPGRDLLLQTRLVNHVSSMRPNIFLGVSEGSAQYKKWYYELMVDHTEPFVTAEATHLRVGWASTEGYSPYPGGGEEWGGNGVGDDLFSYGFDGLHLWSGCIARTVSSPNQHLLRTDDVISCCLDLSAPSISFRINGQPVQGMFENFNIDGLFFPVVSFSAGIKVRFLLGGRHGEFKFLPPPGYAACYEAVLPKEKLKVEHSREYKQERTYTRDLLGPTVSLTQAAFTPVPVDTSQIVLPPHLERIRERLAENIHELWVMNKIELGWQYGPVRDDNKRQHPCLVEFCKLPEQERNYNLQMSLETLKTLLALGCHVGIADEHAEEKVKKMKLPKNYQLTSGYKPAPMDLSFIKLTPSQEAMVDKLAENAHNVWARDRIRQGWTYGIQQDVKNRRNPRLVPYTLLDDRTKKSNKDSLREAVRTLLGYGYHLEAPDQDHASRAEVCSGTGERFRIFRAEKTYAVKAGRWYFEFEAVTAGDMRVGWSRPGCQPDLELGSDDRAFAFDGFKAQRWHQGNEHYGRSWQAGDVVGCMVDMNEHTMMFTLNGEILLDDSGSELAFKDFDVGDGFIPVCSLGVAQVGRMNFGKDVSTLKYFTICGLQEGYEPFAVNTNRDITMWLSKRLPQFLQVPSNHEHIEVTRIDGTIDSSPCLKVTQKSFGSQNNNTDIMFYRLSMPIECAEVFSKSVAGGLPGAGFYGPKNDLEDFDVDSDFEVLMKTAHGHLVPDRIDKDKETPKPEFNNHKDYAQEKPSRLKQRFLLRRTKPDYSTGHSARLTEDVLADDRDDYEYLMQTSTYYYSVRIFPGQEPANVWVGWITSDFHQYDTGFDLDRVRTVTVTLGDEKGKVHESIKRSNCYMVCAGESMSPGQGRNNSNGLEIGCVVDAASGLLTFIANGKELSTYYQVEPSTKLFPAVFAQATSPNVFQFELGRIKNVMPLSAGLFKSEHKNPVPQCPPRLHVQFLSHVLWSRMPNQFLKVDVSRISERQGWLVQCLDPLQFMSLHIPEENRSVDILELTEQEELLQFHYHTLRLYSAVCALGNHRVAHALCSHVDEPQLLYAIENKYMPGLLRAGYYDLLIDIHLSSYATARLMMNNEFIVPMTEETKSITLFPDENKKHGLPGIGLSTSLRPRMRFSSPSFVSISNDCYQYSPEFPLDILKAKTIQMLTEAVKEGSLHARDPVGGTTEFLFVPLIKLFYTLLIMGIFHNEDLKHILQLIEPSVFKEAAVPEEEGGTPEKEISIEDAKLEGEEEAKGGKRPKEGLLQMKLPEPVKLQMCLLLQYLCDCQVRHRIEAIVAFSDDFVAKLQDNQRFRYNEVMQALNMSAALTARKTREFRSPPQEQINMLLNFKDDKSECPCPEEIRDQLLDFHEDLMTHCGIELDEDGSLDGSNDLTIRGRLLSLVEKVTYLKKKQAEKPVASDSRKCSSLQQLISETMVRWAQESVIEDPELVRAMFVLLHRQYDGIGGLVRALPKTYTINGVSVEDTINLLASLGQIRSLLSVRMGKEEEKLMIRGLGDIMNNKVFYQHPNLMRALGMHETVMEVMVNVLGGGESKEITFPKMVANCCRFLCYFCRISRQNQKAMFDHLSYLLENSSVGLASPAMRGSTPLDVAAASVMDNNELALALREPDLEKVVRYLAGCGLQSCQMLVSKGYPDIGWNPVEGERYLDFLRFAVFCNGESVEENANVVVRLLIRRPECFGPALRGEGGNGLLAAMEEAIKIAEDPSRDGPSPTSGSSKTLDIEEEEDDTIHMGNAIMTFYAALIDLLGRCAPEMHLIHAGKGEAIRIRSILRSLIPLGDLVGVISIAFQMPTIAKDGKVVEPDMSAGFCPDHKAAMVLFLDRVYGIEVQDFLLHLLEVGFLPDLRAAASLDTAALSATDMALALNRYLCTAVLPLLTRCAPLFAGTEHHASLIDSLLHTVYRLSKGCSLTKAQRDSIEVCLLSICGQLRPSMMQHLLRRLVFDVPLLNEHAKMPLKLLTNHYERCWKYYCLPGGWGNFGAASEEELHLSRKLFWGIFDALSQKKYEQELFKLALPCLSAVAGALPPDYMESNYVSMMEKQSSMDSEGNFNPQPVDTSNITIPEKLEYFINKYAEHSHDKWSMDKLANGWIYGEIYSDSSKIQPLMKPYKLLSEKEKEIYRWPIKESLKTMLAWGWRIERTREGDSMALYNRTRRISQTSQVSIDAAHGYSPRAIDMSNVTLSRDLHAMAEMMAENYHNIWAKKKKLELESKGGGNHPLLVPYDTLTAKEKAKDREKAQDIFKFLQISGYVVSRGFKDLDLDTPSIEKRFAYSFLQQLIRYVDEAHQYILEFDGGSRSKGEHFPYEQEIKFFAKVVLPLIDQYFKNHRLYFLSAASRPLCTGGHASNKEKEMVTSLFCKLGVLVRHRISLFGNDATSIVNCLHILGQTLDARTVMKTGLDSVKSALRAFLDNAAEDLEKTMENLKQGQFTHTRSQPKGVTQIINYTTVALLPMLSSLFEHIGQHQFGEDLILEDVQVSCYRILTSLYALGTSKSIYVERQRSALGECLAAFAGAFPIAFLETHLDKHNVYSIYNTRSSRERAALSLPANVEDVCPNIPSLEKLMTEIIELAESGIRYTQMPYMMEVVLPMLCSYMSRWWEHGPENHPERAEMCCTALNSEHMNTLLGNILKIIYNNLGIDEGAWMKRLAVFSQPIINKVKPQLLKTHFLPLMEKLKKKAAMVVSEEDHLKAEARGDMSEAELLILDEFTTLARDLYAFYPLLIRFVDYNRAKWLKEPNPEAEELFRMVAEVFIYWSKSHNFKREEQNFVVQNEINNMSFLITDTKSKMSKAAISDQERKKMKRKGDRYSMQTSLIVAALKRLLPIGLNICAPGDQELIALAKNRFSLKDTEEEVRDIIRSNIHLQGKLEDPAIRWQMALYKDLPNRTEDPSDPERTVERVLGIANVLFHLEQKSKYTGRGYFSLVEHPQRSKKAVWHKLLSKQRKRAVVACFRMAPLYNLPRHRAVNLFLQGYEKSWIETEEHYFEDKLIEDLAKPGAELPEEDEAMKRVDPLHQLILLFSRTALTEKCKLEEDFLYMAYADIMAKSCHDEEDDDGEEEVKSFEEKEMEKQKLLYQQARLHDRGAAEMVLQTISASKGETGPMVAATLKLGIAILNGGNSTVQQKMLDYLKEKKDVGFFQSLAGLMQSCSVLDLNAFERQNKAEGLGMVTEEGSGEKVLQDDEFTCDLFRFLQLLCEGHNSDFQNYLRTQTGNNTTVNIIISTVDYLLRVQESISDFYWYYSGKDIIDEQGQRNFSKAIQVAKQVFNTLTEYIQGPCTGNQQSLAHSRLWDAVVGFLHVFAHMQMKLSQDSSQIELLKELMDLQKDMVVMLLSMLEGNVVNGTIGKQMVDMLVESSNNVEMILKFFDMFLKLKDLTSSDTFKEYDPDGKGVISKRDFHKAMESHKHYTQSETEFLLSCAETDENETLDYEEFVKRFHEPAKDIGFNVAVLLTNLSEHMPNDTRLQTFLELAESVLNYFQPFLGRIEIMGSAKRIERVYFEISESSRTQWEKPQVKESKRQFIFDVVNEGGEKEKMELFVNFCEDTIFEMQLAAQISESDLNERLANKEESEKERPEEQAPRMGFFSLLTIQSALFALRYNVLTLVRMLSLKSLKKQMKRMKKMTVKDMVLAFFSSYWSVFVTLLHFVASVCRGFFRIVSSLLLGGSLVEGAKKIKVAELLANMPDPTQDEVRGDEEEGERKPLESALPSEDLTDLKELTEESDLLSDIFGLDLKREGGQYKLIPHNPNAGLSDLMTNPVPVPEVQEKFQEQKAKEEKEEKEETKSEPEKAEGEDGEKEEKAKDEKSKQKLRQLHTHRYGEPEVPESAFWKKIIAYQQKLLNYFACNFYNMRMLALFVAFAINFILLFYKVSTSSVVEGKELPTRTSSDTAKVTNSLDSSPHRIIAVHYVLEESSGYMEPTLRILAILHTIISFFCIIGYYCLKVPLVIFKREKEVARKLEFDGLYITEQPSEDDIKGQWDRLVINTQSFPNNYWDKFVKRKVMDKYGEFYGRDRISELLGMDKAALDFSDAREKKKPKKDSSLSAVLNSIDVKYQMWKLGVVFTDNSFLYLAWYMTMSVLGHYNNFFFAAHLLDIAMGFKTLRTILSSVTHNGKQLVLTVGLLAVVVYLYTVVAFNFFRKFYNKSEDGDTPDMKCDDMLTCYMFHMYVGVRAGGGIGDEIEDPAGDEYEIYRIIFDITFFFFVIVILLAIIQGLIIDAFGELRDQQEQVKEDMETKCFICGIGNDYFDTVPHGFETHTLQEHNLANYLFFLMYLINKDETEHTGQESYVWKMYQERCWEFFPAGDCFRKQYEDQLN
T3 sequence (E9Q401 whole entry R4495C): as above
T4 sequence (E9Q401 whole entry R4495C): as above
T1 sequence (E9Q401 whole entry N4103K): as the sequence (E9Q401 whole entry R4495C) above, with N4103K, C4495R counted along it

SMILES: COc1ccccc1OCCNCC(O)COc1cccc2[nH]c3ccccc3c12 (stereo not shown) [Carvedilol]
- IC50 ([1]; read-out: IC50 for suppressing SOICR): ~10 µM
- IC50 ([1]; read-out: IC50 for suppressing the frequency of SOICR): ~10 µM
- concentration that abolishes SOICR ([1]; rat ventricular myocytes, 10 mM extracellular Ca2+): 50 µM
- concentration that completely blocks the β-adrenergic receptor (β-adrenergic receptor): 100 nM
- ventricular tachycardia after epinephrine (2 mg/kg) and caffeine (120 mg/kg) (RyR2-R4496C KI mice): abolish epinephrine and caffeine-induced ventricular tachycardia; also recorded: no VT was observed
- IC50 (β-adrenergic receptors): 1 to 2 nM
- absolute reduction in mortality [2]: ~7%

SMILES: COc1cc(Cl)c(Cl)cc1OCCNCC(O)COc1cccc2[nH]c3ccccc3c12 (stereo not shown) [Compound 1b]
- concentration that completely blocks the β-adrenergic receptor (β-adrenergic receptor): 100 nM
- suppression of SOICR (RyR2): activity comparable to that of carvedilol (1a)

SMILES: OC(CNCCOc1cc(Cl)c(Cl)cc1Cl)COc1cccc2[nH]c3ccccc3c12 (stereo not shown) [Compound 1c]
- suppression of SOICR (RyR2): inactive

SMILES: OC(CNCCOC1CCCCC1)COc1cccc2[nH]c3ccccc3c12 (stereo not shown) [Compound 1d]
- suppression of SOICR (RyR2): inactive; also recorded: limited effect

SMILES: COc1ccccc1OCCN1CC(COc2cccc3[nH]c4ccccc4c23)OCC1=O (stereo not shown) [Compound 2a]
- effect on SOICR (RyR2-N4104K mutant; HEK293 RyR2-N4104K, 2 mM [Ca2+]o, various concentrations): abolish SOICR
- concentration at which SOICR is suppressed (RyR2-N4104K mutant; HEK293 cells (FIG. 5)): ~30 µM
- β-blocking activity (block of isoproterenol-induced RyR2 S2030 phosphorylation) (β-adrenergic receptor; 1-1000 nM, preliminary, listed as VK-II-36): little β-blocking activity; also recorded: does not block the β-adrenergic receptor
- ventricular tachycardia after epinephrine (2 mg/kg) and caffeine (120 mg/kg) (RyR2-R4496C KI mice; listed as VK-II-36): abolish epinephrine and caffeine-induced ventricular tachycardia; also recorded: no VT was observed

SMILES: COc1ccccc1OCCN1CCOC(COc2cccc3[nH]c4ccccc4c23)C1 (stereo not shown) [Compound 3a]
- suppression of SOICR (RyR2): limited effect

SMILES: c1ccc2c(c1)[nH]c1cccc(OCC3CN(CCOC4CCCCC4)CCO3)c12 (stereo not shown) [Compound 3d]
- suppression of SOICR (RyR2): limited effect

SMILES: COc1ccccc1OCCN1CC(COc2cccc3[nH]c4ccccc4c23)OC1=O (stereo not shown) [Compound 4a]
- suppression of SOICR (RyR2): limited effect

SMILES: CC/C=C\C/C=C\C/C=C\C/C=C\C/C=C\C/C=C\CCC(=O)O [DHA, docosahexenoic acid]
- effect on RyR2 channel activity (RyR2 channel [3]): inhibit RyR2 channel activity

SMILES: CC/C=C\C/C=C\C/C=C\C/C=C\C/C=C\CCCC(=O)O [EPA, eicosapentenoic acid]
- effect on RyR2 channel activity (RyR2 channel [3]): inhibit RyR2 channel activity

SMILES: CC(C)NCC(O)c1ccc(NS(C)(=O)=O)cc1 (stereo not shown) [Sotalol, sotalol]
- effect on SOICR ([1]; rat ventricular myocytes, up to 300 μM): no effect; also recorded: does not suppress SOICR at all
- effect on SOICR (RyR2-R4496C mutant): no significant effect; also recorded: not sotalol inhibited SOICR
- effect on basal channel activity ([3H]ryanodine binding) (mutant RyR2 channels; cell lysates, 3 nM Ca2+, various concentrations of drugs (FIG. 4C)): not sotalol, inhibited basal channel activity
- effect on channel activity of RyR2 (mutant RyR2 channels; summary statement): absolutely no effect on RyR2
- effect on Ca2+ dependence of [3H]ryanodine binding / sensitivity of RyR2 to Ca2+ activation (RyR2 channel [4]): no significant effect
